Experimental data as given in patent publication US20250059188A1, “ARYLSULPHONAMIDE COMPOUNDS” (Anaxis Pharma Pty Ltd, priority 2021, published 2025).
Where two headings read alike, the source gives them in different places.

Legend:
[1] = target: human MLKL (full length) (Homo sapiens (Human), UniProt Q8NB16); assay: KINOMEscan binding assay, human MLKL (full length); conditions: equilibrium dissociation constant
Procedure, shortened: (§1)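 KINOMEscan competition binding using kinase-tagged T7 phage or HEK-293-produced DNA-tagged protein captured on ligand beads, with eluted protein quantified by qPCR. Compounds were run as an 11-point 3-fold series, top 30,000 nM, in 1% DMSO. Kd was fitted with the Hill equation, slope fixed at −1.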

[2] = target: mouse MLKL (full length) (Mus musculus (Mouse), UniProt Q9D2Y4); assay: KINOMEscan binding assay, mouse MLKL (full length); conditions: equilibrium dissociation constant
Description: Binding affinity of the test compounds for human MLKL (full length), mouse MLKL (full length), human RIPK1 and human RIPK3 was determined using the KINOMEscan™ technology developed by DiscoverX (USA; http://www.discoverx.com). The assay was conducted according to manufacturer instructions.
Kinase assays. For most assays, kinase-tagged T7 phage strains were grown in parallel in 24-well blocks in an E. coli host derived from the BL21 strain. E. coli were grown to log-phase and infected with T7 phage from a frozen stock (multiplicity of infection=0.4) and incubated with shaking at 32° C. until lysis (90-150 minutes). The lysates were centrifuged (6,000×g) and filtered (0.2 μm) to remove cell debris. The remaining kinases were produced in HEK-293 cells and subsequently tagged with DNA for qPCR detection. […] The liganded beads were blocked with excess biotin and washed with blocking buffer (SeaBlock (Pierce), 1% BSA, 0.05% Tween 20, 1 mM DTT) to remove unbound ligand and to reduce non-specific phage binding. […] All reactions were performed in polypropylene 384-well plates in a final volume of 20 μL. […] The kinase concentration in the eluates was measured by qPCR.
An 11-point 3-fold serial dilution of each test compound was prepared in 100% DMSO at 100× final test concentration and subsequently diluted to 1× in the assay (final DMSO concentration=1%). Most Kos were determined using a compound top concentration=30,000 nM.
KD for each test compound was calculated with a standard dose-response curve using the Hill equation (equation (1)): […]
The Hill Slope was set to −1.
Curves were fitted using a non-linear least square fit with the Levenberg-Marquardt algorithm.

[3] = target: human RIPK1 (Homo sapiens (Human), UniProt Q13546); assay: KINOMEscan binding assay, human RIPK1; conditions: equilibrium dissociation constant
Procedure, shortened: as §1

[4] = target: human RIPK3 (Homo sapiens (Human), UniProt Q9Y572); assay: KINOMEscan binding assay, human RIPK3; conditions: equilibrium dissociation constant
Procedure, shortened: as §1

[5] = system: U937 human histiocytic leukemia cell line; assay: Inhibition of TSQ induced necroptosis in U937 cells (CellTitre-Glo); conditions: 48 hours, read-out: Inhibition of TSQ-induced necroptosis (IC50 cell-based assay)
Procedure, shortened: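 Necroptosis was induced with TNF-Fc (100 ng/ml), Smac mimetic (500 nM) and Q-VD-OPh (10 μM) in 20000 U937 cells/well exposed to a 10-point, 3-fold compound series (top 36 μM, 0.3% DMSO). ATP luminescence read after 48 h; 4-parameter fit gave IC50. Parallel TSQ-free wells assessed compound toxicity.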

[6] = system: U937 cells; assay: Counter screen: U937 cell viability without TSQ cocktail (off-target effect); set-up: species or system human; conditions: read-out: Off-target effect (IC50 cell-based assay)
Procedure, shortened: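 Off-target viability counter screen: compounds titrated 36 μM down 1:3 over 10 points (0.3% DMSO) on 20,000 U937 cells/well, no TNF/Smac mimetic/Q-VD-OPh added, 48 h incubation. ATP-based CellTiter-Glo luminescence, four-parameter logistic IC50.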

[7] = system: Immortalised Mouse Dermal Fibroblasts (MDFs); assay: Inhibition of TSI induced necroptosis in mouse dermal fibroblasts (CellTitre-Glo); conditions: MDF cells, TSI cocktail (TNF, Smac mimetic, IDN-6556), read-out: Inhibition of TSI-induced necroptosis (IC50 cell-based assay) in MDF
Description: Cellular Assay: Screening Compounds for Inhibition of TSI Induced Necroptosis in, 384 well plate format. • Cell Line ID: Immortalised Mouse Dermal Fibroblasts (MDFs). • Cell Concentration (cells/well): Final cell density is 2200 cells per well. • Cell growth medium: DMEM medium+7.4% Fetal Bovine Serum (FBS). Cells are cultured in Corning 150 cm^2 tissue culture flasks with vented caps at 37° C./10% CO2. • Incubation: Plates were incubated for 30 minutes following addition of compounds and then 3 hours incubation with death stimuli (TSI cocktail) at 37° C./10% CO2 in a humidified incubator. • Compound concentration: 36 μM starting concentration, 1:3 dilution, 10 point • DMSO final concentration (% v/v): 0.3%. Compounds in TSI Cocktail (T: TNF; S: Smac Mimetic; I: IDN-6556) and their Final Concentrations: • rhTNF (100 ng/ml) • Compound A (500 nM)—Smac mimetic, Tetralogic and SYNthesis med chem • IDN-6556 (10 μM)—Selleckchem (S7775)
The cellular assay was carried out according to the following steps: • 1. Each well was prepared by sequential addition of: • a. 40 μL of cell suspension (5.5×10^4 cells/mL) was added to each well to provide a final cell concentration of 2,200 cells per well. • b. After 24 hours, DMSO (control; columns 1-2 and 23-24) or compound in DMSO—addition was performed using acoustic transfer of nL volumes of stock compound to give final test concentrations of 36, 12, 4, 1.3, 0.44, 0.148, 0.049, 0.016, 0.005 and 0.002 μM. All wells were backfilled with DMSO to a final total volume in the well of 100 nL. • c. Following compound/DMSO addition in step (b), Plates were incubated for 30 minutes at 37° C./10% CO2 in a humidified incubator and then 10 μL of 5×TSI cocktail (except to positive controls; columns 2 and 24) was added to each well. • 2. After 3 hours, plate was removed from the 37° C. incubator and equilibrated to room temperature for 15 minutes. • 3. 15 μL of room temperature CellTitre-Glo2™ (Promega™) was added to each well. • 4. Shook plates for 2 minutes (˜600 rpm) and incubated at room temperature for 15 minutes to allow signal to stabilise. • 5. Read luminescence readout on a plate reader.
Percent viability was calculated for each compound according to equation (2): […]
10 point titration curves were fitted with the 4 parameter logistic nonlinear regression model and the IC50 reported reflect the inflection point of the curve for curve fitting.
• Assay involving the TSI cocktail (T: TNF; S: Smac mimetic; I: IDN-6556): TSI treatment ensures that cells specifically undergo necroptotic cell death. TNF activates the TNF receptor, Smac mimetic directs the signal away from proinflammatory signaling and toward the RIPK1/RIPK3-mediated cell death pathways, and IDN-6556 (Caspase inhibitor) ensures that the apoptotic response is blocked leaving only the programmed necrosis response. The compounds' activity (solution in DMSO) tested in this TSI-induced assay was evaluated by determining the number of viable cells in culture by measuring the amount of ATP present as measured by CelltiterGlo.

[8] = TSQ cocktail (TNF, Smac mimetic, Q-VD-OPh)
[9] = Homo sapiens, U-937, TSQ cocktail (TNF, Smac mimetic, Q-VD-OPh)
[10] = Homo sapiens, U-937, compound without TSQ cocktail

Chain of human RIPK1 (Q13546 whole entry): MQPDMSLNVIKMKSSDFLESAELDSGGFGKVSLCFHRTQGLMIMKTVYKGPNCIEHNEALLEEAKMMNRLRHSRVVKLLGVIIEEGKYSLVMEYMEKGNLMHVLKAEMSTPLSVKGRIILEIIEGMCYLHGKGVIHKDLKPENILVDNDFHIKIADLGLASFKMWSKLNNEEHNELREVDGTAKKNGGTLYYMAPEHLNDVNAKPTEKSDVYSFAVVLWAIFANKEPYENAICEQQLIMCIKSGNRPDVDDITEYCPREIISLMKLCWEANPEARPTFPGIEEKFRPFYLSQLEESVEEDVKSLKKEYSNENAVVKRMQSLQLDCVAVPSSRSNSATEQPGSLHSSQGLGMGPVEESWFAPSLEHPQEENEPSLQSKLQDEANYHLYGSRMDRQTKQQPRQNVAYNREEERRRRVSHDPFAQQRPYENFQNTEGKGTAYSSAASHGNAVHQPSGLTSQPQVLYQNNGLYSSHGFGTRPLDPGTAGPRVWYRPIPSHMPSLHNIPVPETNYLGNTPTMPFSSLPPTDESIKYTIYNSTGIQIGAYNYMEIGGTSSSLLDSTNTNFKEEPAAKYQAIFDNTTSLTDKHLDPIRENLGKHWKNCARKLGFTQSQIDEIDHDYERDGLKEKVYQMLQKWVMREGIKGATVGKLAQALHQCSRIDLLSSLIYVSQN
Chain of human RIPK3 (Q9Y572 whole entry): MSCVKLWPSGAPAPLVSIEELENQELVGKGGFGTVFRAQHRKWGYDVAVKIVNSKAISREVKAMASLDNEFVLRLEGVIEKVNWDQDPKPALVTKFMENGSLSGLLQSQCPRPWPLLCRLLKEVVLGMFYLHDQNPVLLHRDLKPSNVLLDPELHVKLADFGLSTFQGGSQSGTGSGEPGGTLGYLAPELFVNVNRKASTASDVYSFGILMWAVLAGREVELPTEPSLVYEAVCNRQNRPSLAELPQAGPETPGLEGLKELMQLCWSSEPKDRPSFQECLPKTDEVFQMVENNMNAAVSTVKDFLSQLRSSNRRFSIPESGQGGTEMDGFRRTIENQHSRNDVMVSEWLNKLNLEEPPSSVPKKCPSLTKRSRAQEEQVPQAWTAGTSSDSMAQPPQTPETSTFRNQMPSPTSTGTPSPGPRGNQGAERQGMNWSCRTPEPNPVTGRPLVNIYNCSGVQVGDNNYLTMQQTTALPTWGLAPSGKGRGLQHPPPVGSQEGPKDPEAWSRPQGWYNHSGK
Chain of mouse MLKL (full length) (Q9D2Y4 whole entry): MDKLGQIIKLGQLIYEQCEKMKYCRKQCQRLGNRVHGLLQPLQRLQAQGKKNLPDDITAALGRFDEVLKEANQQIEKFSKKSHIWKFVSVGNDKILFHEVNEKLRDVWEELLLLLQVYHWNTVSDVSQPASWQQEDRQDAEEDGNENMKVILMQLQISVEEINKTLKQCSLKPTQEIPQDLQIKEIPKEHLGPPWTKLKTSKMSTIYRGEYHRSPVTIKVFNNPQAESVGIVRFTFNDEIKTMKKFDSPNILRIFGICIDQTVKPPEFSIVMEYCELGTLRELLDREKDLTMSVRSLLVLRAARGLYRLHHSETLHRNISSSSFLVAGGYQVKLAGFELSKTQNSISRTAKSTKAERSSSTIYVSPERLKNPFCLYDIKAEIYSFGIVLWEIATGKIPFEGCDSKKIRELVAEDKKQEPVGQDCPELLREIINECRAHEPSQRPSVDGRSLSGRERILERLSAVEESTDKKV
Chain of human MLKL (full length) (Q8NB16 whole entry): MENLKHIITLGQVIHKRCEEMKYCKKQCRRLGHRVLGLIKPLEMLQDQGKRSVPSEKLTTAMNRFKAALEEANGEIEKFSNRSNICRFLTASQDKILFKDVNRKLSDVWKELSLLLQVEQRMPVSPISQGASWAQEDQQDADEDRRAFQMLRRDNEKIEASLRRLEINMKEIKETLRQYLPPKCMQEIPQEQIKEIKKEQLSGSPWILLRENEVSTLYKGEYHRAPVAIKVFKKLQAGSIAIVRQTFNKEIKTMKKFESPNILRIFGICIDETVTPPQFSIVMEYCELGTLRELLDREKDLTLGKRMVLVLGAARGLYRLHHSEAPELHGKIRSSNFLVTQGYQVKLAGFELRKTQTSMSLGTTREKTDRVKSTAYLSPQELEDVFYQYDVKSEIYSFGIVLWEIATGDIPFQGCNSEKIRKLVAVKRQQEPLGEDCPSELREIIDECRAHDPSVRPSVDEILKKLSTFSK

Cc1cc(-c2ccc(NS(=O)(=O)C(F)F)c(OCc3ccc(F)cc3)c2)c2c(N)n[nH]c2n1 [Compound 70, N-(4-(3-Amino-6-methyl-1H-pyrazolo[3,4-b]pyridin-4-yl)-2-((4-fluorophenyl)methoxy)phenyl)-1,1-difluoromethanesulfonamide]
Kd [1]: < 0.001 µM | Kd [2]: 0.001 to 0.1 µM | Kd [3]: > 10 µM | Kd [4]: > 10 µM

Nc1n[nH]c2nccc(-c3ccc(NS(=O)(=O)C(F)F)c(OCc4ccc(F)cc4)c3)c12 [Compound 66, N-(4-(3-Amino-1H-pyrazolo[3,4-b]pyridin-4-yl)-2-((4-fluorophenyl)methoxy)phenyl)-1,1-difluoromethanesulfonamide]
Kd [1]: < 0.001 µM | Kd [2]: 0.001 to 0.1 µM | Kd [3]: > 10 µM | Kd [4]: > 10 µM

C[C@H](Oc1cc(-c2coc3c(-c4cnn(C)c4)cnc(N)c23)ccc1NS(=O)(=O)C(F)F)c1ccc(F)cc1 [Compound 8, (S)-N-(4-(4-amino-7-(1-methyl-1H-pyrazol-4-yl)furo[3,2-c]pyridin-3-yl)-2-(1-(4-fluorophenyl)ethoxy)phenyl)-1,1-difluoromethanesulfonamide]
Kd [1]: < 0.001 µM | Kd [2]: < 0.001 µM | Kd [3]: > 10 µM | Kd [4]: > 10 µM

C[C@H](Oc1cc(-c2nn(C)c3c(-c4cnn(C5CCN(C)C(C)(C)C5)c4)cnc(N)c23)ccc1NS(=O)(=O)C(F)F)c1ccc(F)cc1 (single isomer, unassigned) [Compound 155, N-(4-(4-amino-1-methyl-7-(1-((S*)-1,2,2-trimethylpiperidin-4-yl)-1H-pyrazol-4-yl)-1H-pyrazolo[4,3-c]pyridin-3-yl)-2-((S)-1-(4-fluorophenyl)ethoxy)phenyl)-1,1-difluoromethanesulfonamide]
Kd [1]: 0.001 to 0.1 µM | Kd [3]: > 10 µM | Kd [4]: > 10 µM | IC50 [5, 8]: < 0.01 µM | IC50 ([6]; compound without TSQ cocktail): > 10 µM | IC50 ([7]; 3 hours): 0.1 to 1 µM

C[C@H](Oc1cc(-c2nn(C)c3c(-c4cnn(C5CCN(C)C6(CC6)C5)c4)cnc(N)c23)ccc1NS(=O)(=O)C(F)F)c1ccc(F)cc1 (single isomer, unassigned) [Compound 171, N-(4-(4-amino-1-methyl-7-(1-((R*)-4-methyl-4-azaspiro[2.5]octan-7-yl)-1H-pyrazol-4-yl)-1H-pyrazolo[4,3-c]pyridin-3-yl)-2-((S)-1-(4-fluorophenyl)ethoxy)phenyl)-1,1-difluoromethanesulfonamide]
Kd [1]: 0.001 to 0.1 µM | Kd [3]: > 10 µM | Kd [4]: > 10 µM | IC50 [5, 8]: 0.01 to 1 µM | IC50 ([6]; compound without TSQ cocktail): > 10 µM | IC50 ([7]; 3 hours): < 0.1 µM

Nc1ncc(-c2cnn(C3CCOCC3)c2)c2occ(-c3ccc(NS(=O)(=O)C(F)F)c(OCc4ccc(F)cc4)c3)c12 [Compound 5, N-(4-(4-amino-7-(1-(tetrahydro-2H-pyran-4-yl)-1H-pyrazol-4-yl)furo[3,2-c]pyridin-3-yl)-2-((4-fluorobenzyl)oxy)phenyl)-1,1-difluoromethanesulfonamide]
Kd [1]: < 0.001 µM | Kd [2]: < 0.001 µM | Kd [3]: > 10 µM | Kd [4]: > 10 µM

C[C@H](Oc1cc(-c2nn(C)c3c(-c4cnn(C5CCN(C)C(C(F)F)C5)c4)cnc(N)c23)ccc1NS(=O)(=O)C(F)F)c1ccc(F)cc1 (stereo partly drawn) [Compound 158, N-(4-(4-amino-7-(1-(2-(difluoromethyl)-1-methylpiperidin-4-yl)-1H-pyrazol-4-yl)-1-methyl-1H-pyrazolo[4,3-c]pyridin-3-yl)-2-((S)-1-(4-fluorophenyl)ethoxy)phenyl)-1,1-difluoromethanesulfonamide]
Kd [1]: 0.001 to 0.1 µM | IC50 [5, 9]: < 0.01 µM | IC50 [6, 10]: > 10 µM | IC50 ([7]; Mus musculus, Fibroblast, 3 h): < 0.1 µM

[2H]C([2H])([2H])N1CCC(n2cc(-c3cnc(N)c4c(-c5ccc(NS(=O)(=O)C(F)F)c(O[C@@H](C)c6ccc(F)cc6)c5)nn(C)c34)cn2)CC1(C)C (stereo partly drawn) [Compound 152, N-(4-(4-amino-7-(1-(2,2-dimethyl-1-(methyl-d3)piperidin-4-yl)-1H-pyrazol-4-yl)-1-methyl-1H-pyrazolo[4,3-c]pyridin-3-yl)-2-((S)-1-(4-fluorophenyl)ethoxy)phenyl)-1,1-difluoromethanesulfonamide]
IC50 [5, 9]: < 0.01 µM | IC50 [6, 10]: > 10 µM | IC50 ([7]; Mus musculus, Fibroblast, 3 h): 0.1 to 1 µM

Nc1n[nH]c2ncnc(-c3ccc(NS(=O)(=O)C(F)F)c(OCc4ccc(F)cc4)c3)c12 [Compound 69, N-(4-(3-Amino-1H-pyrazolo[3,4-d]pyrimidin-4-yl)-2-((4-fluorophenyl)methoxy)phenyl)-1,1-difluoromethanesulfonamide]
Kd [1]: < 0.001 µM | Kd [2]: 0.001 to 0.1 µM | Kd [3]: > 10 µM | Kd [4]: > 10 µM

C[C@H](Oc1cc(-c2nn(C)c3c(-c4cnn(C5CCOCC5)c4)cnc(N)c23)ccc1NS(=O)(=O)C(F)F)c1ccc(Cl)cc1 [Compound 137, (S)-N-(4-(4-amino-1-methyl-7-(1-(tetrahydro-2H-pyran-4-yl)-1H-pyrazol-4-yl)-1H-pyrazolo[4,3-c]pyridin-3-yl)-2-(1-(4-chlorophenyl)ethoxy)phenyl)-1,1-difluoromethanesulfonamide]
IC50 [5, 9]: < 0.01 µM | IC50 [6, 10]: > 10 µM | IC50 ([7]; Mus musculus, Fibroblast, 3 h): 1 to 10 µM
